{
  "source": "patent US20230201179A1",
  "about": "“AGENT FOR TREATING CONTRAST-INDUCED ACUTE KIDNEY INJURY” (APTABIO THERAPEUTICS INC., priority 2020, published 2023)",
  "key": {"[1]": {"test_system": "reactive oxygen species", "assay": "Inhibitory effect on the formation of reactive oxygen species"}, "[2]": {"test_system": "contrast media-induced acute kidney injury", "assay": "Efficacy evaluation in animal model with contrast media-induced acute kidney injury in mice", "format": "in vivo, C57BL/6 mice", "procedure": "As the experimental animals, 6-week-old male C57BL/6 mice were purchased from LionBio. All mice were maintained under standard conditions. After breeding for about 2 weeks, at 8 weeks of age, Compound 1 (3-phenyl-4-n-propyl-1-(pyridin-2-yl)-1H-pyrazol-5-ol hydrochloride) was orally administered at a dose of 60 mg/kg daily for 5 days before administration of contrast media. In order to induce acute kidney injury, after a fast of 16 hours, the anti-inflammatory analgesic indomethacin (10 mg/kg) and the NO blocker N-nitro-L-arginine (L-NAME, 10 mg/kg) were intraperitoneally administered 15 minutes before administration of contrast media, and contrast media (Iohexol, 4000 mg iodine/kg) was intraperitoneally administered 15 minutes later. After 24 hours of supplying food and water, the animal test substances were classified into three groups: vehicle administered group (Control) and contrast media administered group (Iohexol), and contrast media and Compound 1 simultaneously administered group (Iohexol+Compound 1). After completion of the test, the animals were anesthetized, kidney tissue was enucleated for each individual, and blood was taken for examination. The tissues were fixed in 10% buffered neutral formalin solution. The fixed tissues were sliced to a certain thickness and paraffin-embedded through a general tissue processing process to produce a tissue section of 4 to 5 μm, and then hematoxylin & eosin staining (H&E stain), which is a general staining method, was performed to observe histopathologically the extent of kidney injury in the region of the renal cortex and renal medulla, and F4/80 staining, Tunel staining, DHE staining and nitrotyrosine staining were performed to observe the effects of inflammation and oxidative stress in the kidney injury tissue. Blood was taken and centrifuged at 3000 rpm, 4° C. for 10 minutes, and the upper layer of serum was taken and the level of blood urea nitrogen (BUN) and creatinine was measured using an automatic blood biochemical analyzer (AU480, Beckman Coulter, USA) to confirm the indicator of kidney injury. Histologic evaluation of the degree of kidney injury was calculated as 0 point for no renal tubular injury, 1 point for mild injury, 2 points for intratubular vacuolar lesions less than 25-60%, and 3 points for intratubular vacuolar lesions of 60% or more, thereby formulating the average value of renal tubular injury under the microscope field of view."}, "[3]": {"details": "60 mg/kg orally once a day for 5 days before Iohexol, vs contrast media-treated group"}},
  "data": [
    {"smiles": "CCCCc1c(-c2ccccc2)nn(-c2ccccn2)c1O", "note": "[3-phenyl-4-butyl-1-(pyridin-2-yl)-1H-pyrazol-5-ol]", "values": [
      {"measurement": "inhibitory effect on the formation of reactive oxygen species", "setting": "[1]", "result": "inhibitory effect"}
    ]},
    {"smiles": "CCc1c(-c2ccccc2)nn(-c2ccccn2)c1O", "note": "[3-phenyl-4-ethyl-1-(pyridin-2-yl)-1H-pyrazol-5-ol]", "values": [
      {"measurement": "inhibitory effect on the formation of reactive oxygen species", "setting": "[1]", "result": "inhibitory effect"}
    ]},
    {"smiles": "CCCc1c(-c2ccccc2)nn(-c2ccccn2)c1O.Cl", "note": "[Compound 1, 3-phenyl-4-propyl-1-(pyridin-2-yl)-1H-pyrazol-5-ol hydrochloride]", "values": [
      {"measurement": "kidney injury of the renal medulla and the renal cortex (H&E histopathology, FIG. 1)", "setting": "[2]; 60 mg/kg orally once a day for 5 days before Iohexol 4000 mg iodine/kg i.p., vs contrast media-treated group", "result": "remarkably reduced"},
      {"measurement": "renal tubular injury score (FIG. 5)", "setting": "[2]; 60 mg/kg orally once a day for 5 days before Iohexol, score 0-3, renal biopsy", "result": "remarkably reduced"},
      {"measurement": "activated oxygen (reactive oxygen species, DHE staining) in the kidney tissue (FIG. 8)", "setting": "[2]; [3]", "result": "remarkably reduced"},
      {"measurement": "concentration of BUN (serum, FIG. 2)", "setting": "[2]; [3]", "result": "decreased"},
      {"measurement": "concentration of KIM-1 in the urine (FIG. 4)", "setting": "[2]; [3]", "result": "decreased"},
      {"measurement": "concentration of NGAL in the urine (FIG. 4)", "setting": "[2]; [3]", "result": "decreased"},
      {"measurement": "concentration of creatinine (Serum Cr, FIG. 3)", "setting": "[2]; [3]", "result": "decreased"},
      {"measurement": "concentration of microproteinuria (albumin) in the urine (FIG. 4)", "setting": "[2]; [3]", "result": "decreased"},
      {"measurement": "infiltration of inflammatory cells (macrophages, F4/80-positive cells) within the kidney tissue (FIG. 7)", "setting": "[2]; [3]", "result": "remarkably reduced"},
      {"measurement": "inflammation (MCP-1 gene expression) in the kidney tissue (FIG. 6)", "setting": "[2]; [3]", "result": "remarkably reduced"},
      {"measurement": "nitrotyrosine in the kidney tissue (FIG. 9)", "setting": "[2]; [3]", "result": "remarkably reduced"}
    ]},
    {"smiles": "CCCc1c(-c2ccccc2)nn(-c2ccccn2)c1O", "note": "[3-phenyl-4-propyl-1-(pyridin-2-yl)-1H-pyrazol-5-ol]", "values": [
      {"measurement": "inhibitory effect on the formation of reactive oxygen species", "setting": "[1]", "result": "inhibitory effect"}
    ]}
  ]
}
